Reference: ChEMBL document CHEMBL6078713, “Synthesis and mechanistic studies of 4-aminoquinoline-Isatin molecular hybrids and Schiff's bases as promising antimicrobial agents” (Eur J Med Chem, 2025)
In brackets after ≈: the same amount, converted by molar mass. Activity calls are given as the source filed them. The calls are words filed in the database; no cut-off is given here.

Tests used:
Escherichia coli [1] = assay: Antibacterial activity against Escherichia coli MTCC 443 assessed as diameter of zone of inhibition at 500 ug/ml by agar disk diffusion method; format: functional; details: read-out: DIZ
Enterococcus faecalis [2] = assay: Antibacterial activity against Enterococcus faecalis MTCC 439 assessed as diameter of zone of inhibition at 500 ug/ml by agar disk diffusion method; format: functional; details: read-out: DIZ
Staphylococcus aureus [3] = assay: Antibacterial activity against Staphylococcus aureus MTCC 902 assessed as diameter of zone of inhibition at 500 ug/ml by agar disk diffusion method; format: functional; details: read-out: DIZ
Pseudomonas aeruginosa [4] = assay: Antibacterial activity against Pseudomonas aeruginosa MTCC 2453 assessed as diameter of zone of inhibition at 500 ug/ml by agar disk diffusion method; format: functional; details: read-out: DIZ
Escherichia coli [5] = assay: Antibacterial activity against Escherichia coli MTCC 443 assessed as inhibition of bacterial growth incubated overnight by serial dilution based spectrophotometer; format: functional
Enterococcus faecalis [6] = assay: Antibacterial activity against Enterococcus faecalis MTCC 439 assessed as inhibition of bacterial growth incubated overnight by serial dilution based spectrophotometer; format: functional
Bacillus subtilis [7] = assay: Antibacterial activity against Bacillus subtilis MTCC 736 assessed as inhibition of bacterial growth incubated overnight by serial dilution based spectrophotometer; format: functional
Staphylococcus aureus [8] = assay: Antibacterial activity against Staphylococcus aureus MTCC 902 assessed as inhibition of bacterial growth incubated overnight by serial dilution based spectrophotometer; format: functional
Pseudomonas aeruginosa [9] = assay: Antibacterial activity against Pseudomonas aeruginosa MTCC 2453 assessed as inhibition of bacterial growth incubated overnight by serial dilution based spectrophotometer; format: functional
Salmonella typhi [10] = assay: Antibacterial activity against Salmonella typhi assessed as inhibition of bacterial growth incubated overnight by serial dilution based spectrophotometer; format: functional, Salmonella enterica subsp. enterica serovar Typhi; details: Salmonella enterica
Escherichia coli [11] = assay: Bactericidal activity against Escherichia coli MTCC 443 assessed as inhibition of bacterial growth incubated overnight; format: functional
Enterococcus faecalis [12] = assay: Bactericidal activity against Enterococcus faecalis MTCC 439 assessed as inhibition of bacterial growth incubated overnight; format: functional
Staphylococcus aureus [13] = assay: Bactericidal activity against Staphylococcus aureus MTCC 902 assessed as inhibition of bacterial growth incubated overnight; format: functional
Pseudomonas aeruginosa [14] = assay: Bactericidal activity against Pseudomonas aeruginosa MTCC 2453 assessed as inhibition of bacterial growth incubated overnight; format: functional
Enterococcus faecalis [15] = assay: Ratio of MBC for antibacterial activity against Enterococcus faecalis MTCC 439 to MIC for bactericidal activity against Enterococcus faecalis MTCC 439; format: functional
Staphylococcus aureus [16] = assay: Ratio of MBC for antibacterial activity against Staphylococcus aureus MTCC 902 to MIC for bactericidal activity against Staphylococcus aureus MTCC 902; format: functional
Pseudomonas aeruginosa [17] = assay: Ratio of MBC for antibacterial activity against Pseudomonas aeruginosa MTCC 2453 to MIC for bactericidal activity against Pseudomonas aeruginosa MTCC 2453; format: functional
Escherichia coli [18] = assay: Antibacterial activity against Escherichia coli MTCC 443 assessed as diameter of zone of inhibition at 0.5 times MIC incubated overnight by disk diffusion method; format: functional
Enterococcus faecalis [19] = assay: Antibacterial activity against Enterococcus faecalis MTCC 439 assessed as diameter of zone of inhibition at 0.5 times MIC incubated overnight by disk diffusion method; format: functional
Staphylococcus aureus [20] = assay: Antibacterial activity against Staphylococcus aureus MTCC 902 assessed as diameter of zone of inhibition at 0.5 times MIC incubated overnight by disk diffusion method; format: functional
Pseudomonas aeruginosa [21] = assay: Antibacterial activity against Pseudomonas aeruginosa MTCC 2453 assessed as diameter of zone of inhibition at 0.5 times MIC incubated overnight by disk diffusion method; format: functional
Salmonella typhi [22] = assay: Antibacterial activity against Salmonella typhi assessed as diameter of zone of inhibition at 0.5 times MIC incubated overnight by disk diffusion method; format: functional, Salmonella enterica subsp. enterica serovar Typhi
Escherichia coli [23] = assay: Antibacterial activity against Escherichia coli MTCC 443 assessed as diameter of zone of inhibition at MIC incubated overnight by disk diffusion method; format: functional
Enterococcus faecalis [24] = assay: Antibacterial activity against Enterococcus faecalis MTCC 439 assessed as diameter of zone of inhibition at MIC incubated overnight by disk diffusion method; format: functional
Bacillus subtilis [25] = assay: Antibacterial activity against Bacillus subtilis MTCC 736 assessed as diameter of zone of inhibition at MIC incubated overnight by disk diffusion method; format: functional
Staphylococcus aureus [26] = assay: Antibacterial activity against Staphylococcus aureus MTCC 902 assessed as diameter of zone of inhibition at MIC incubated overnight by disk diffusion method; format: functional
Pseudomonas aeruginosa [27] = assay: Antibacterial activity against Pseudomonas aeruginosa MTCC 2453 assessed as diameter of zone of inhibition at MIC incubated overnight by disk diffusion method; format: functional
Salmonella typhi [28] = assay: Antibacterial activity against Salmonella typhi assessed as diameter of zone of inhibition at MIC incubated overnight by disk diffusion method; format: functional, Salmonella enterica subsp. enterica serovar Typhi
Escherichia coli [29] = assay: Antibacterial activity against Escherichia coli MTCC 443 assessed as diameter of zone of inhibition at 2 times MIC incubated overnight by disk diffusion method; format: functional
Enterococcus faecalis [30] = assay: Antibacterial activity against Enterococcus faecalis MTCC 439 assessed as diameter of zone of inhibition at 2 times MIC incubated overnight by disk diffusion method; format: functional
Bacillus subtilis [31] = assay: Antibacterial activity against Bacillus subtilis MTCC 736 assessed as diameter of zone of inhibition at 2 times MIC incubated overnight by disk diffusion method; format: functional
Staphylococcus aureus [32] = assay: Antibacterial activity against Staphylococcus aureus MTCC 902 assessed as diameter of zone of inhibition at 2 times MIC incubated overnight by disk diffusion method; format: functional
Pseudomonas aeruginosa [33] = assay: Antibacterial activity against Pseudomonas aeruginosa MTCC 2453 assessed as diameter of zone of inhibition at 2 times MIC incubated overnight by disk diffusion method; format: functional
Salmonella typhi [34] = assay: Antibacterial activity against Salmonella typhi assessed as diameter of zone of inhibition at 2 times MIC incubated overnight by disk diffusion method; format: functional, Salmonella enterica subsp. enterica serovar Typhi
Escherichia coli [35] = assay: Synergistic antibacterial activity against Escherichia coli MTCC 443 assessed as inhibition of bacterial growth incubated overnight in presence of ciprofloxacin by serial dilution based spectrophotometer; format: functional
Enterococcus faecalis [36] = assay: Synergistic antibacterial activity against Enterococcus faecalis MTCC 439 assessed as inhibition of bacterial growth incubated overnight in presence of ciprofloxacin by serial dilution based spectrophotometer; format: functional
Staphylococcus aureus [37] = assay: Synergistic antibacterial activity against Staphylococcus aureus MTCC 902 assessed as inhibition of bacterial growth incubated overnight in presence of ciprofloxacin by serial dilution based spectrophotometer; format: functional
Pseudomonas aeruginosa [38] = assay: Synergistic antibacterial activity against Pseudomonas aeruginosa MTCC 2453 assessed as inhibition of bacterial growth incubated overnight in presence of ciprofloxacin by serial dilution based spectrophotometer; format: functional
Escherichia coli [39] = assay: Synergistic antibacterial activity against Escherichia coli MTCC 443 assessed as fractional inhibitory concentration index incubated overnight in presence of ciprofloxacin by microdilution checkerboard assay; format: functional
Enterococcus faecalis [40] = assay: Synergistic antibacterial activity against Enterococcus faecalis MTCC 439 assessed as fractional inhibitory concentration index incubated overnight in presence of ciprofloxacin by microdilution checkerboard assay; format: functional
Staphylococcus aureus [41] = assay: Synergistic antibacterial activity against Staphylococcus aureus MTCC 902 assessed as fractional inhibitory concentration index incubated overnight in presence of ciprofloxacin by microdilution checkerboard assay; format: functional
Pseudomonas aeruginosa [42] = assay: Synergistic antibacterial activity against Pseudomonas aeruginosa MTCC 2453 assessed as fractional inhibitory concentration index incubated overnight in presence of ciprofloxacin by microdilution checkerboard assay; format: functional
Pseudomonas aeruginosa [43] = assay: Antibacterial activity against Pseudomonas aeruginosa MTCC 2453 assessed as inhibition of bacterial growth incubated overnight by spectrophotometry relative to control; format: functional
Enterococcus faecalis [44] = assay: Antibacterial activity against Enterococcus faecalis MTCC 439 assessed as inhibition of bacterial growth incubated overnight by spectrophotometry relative to control; format: functional
Bacillus subtilis [45] = assay: Antibacterial activity against Bacillus subtilis MTCC 736 assessed as inhibition of bacterial growth incubated overnight by spectrophotometry relative to control; format: functional
Staphylococcus aureus [46] = assay: Antibacterial activity against Staphylococcus aureus MTCC 902 assessed as inhibition of bacterial growth incubated overnight by spectrophotometry relative to control; format: functional
Staphylococcus aureus [47] = assay: Bacteriostatic activity against Staphylococcus aureus MTCC 902 assessed as reduction in bacterial growth at 2 times MIC measured upto 24 hrs by absorbance based assay; format: functional, organism-based
Escherichia coli [48] = assay: Bacteriostatic activity against Escherichia coli MTCC 443 assessed as reduction in bacterial growth at 2 times MIC measured upto 10 hrs by absorbance based assay; format: functional, organism-based
Staphylococcus aureus [49] = assay: Bacteriostatic activity against Staphylococcus aureus MTCC 902 assessed as reduction in bacterial growth at 2 times MIC measured upto 10 hrs by absorbance based assay; format: functional, organism-based
Escherichia coli [50] = assay: Bacteriostatic activity against Escherichia coli MTCC 443 assessed as reduction in log phase of bacterial growth at 0.5 to 1 times MIC measured upto 24 hrs by absorbance based assay; format: functional, organism-based
Staphylococcus aureus [51] = assay: Bacteriostatic activity against Staphylococcus aureus MTCC 902 assessed as reduction in bacterial growth at 0.5 to 1 times MIC measured upto 24 hrs by absorbance based assay; format: functional, organism-based

O=C1Nc2ccc(Cl)cc2/C1=N/CCNc1ccnc2cc(Cl)ccc12
zone of inhibition at 500 µg/mL (Escherichia coli [1]): 11 mm
zone of inhibition at 500 µg/mL (Enterococcus faecalis [2]): 8 mm
zone of inhibition at 500 µg/mL (Staphylococcus aureus [3]): 10 mm
zone of inhibition at 500 µg/mL (Pseudomonas aeruginosa [4]): 12 mm
MIC (Escherichia coli [5]): 256 µg/mL (≈ 664 µM)
MIC (Enterococcus faecalis [6]): 512 µg/mL (≈ 1330 µM)
MIC (Bacillus subtilis [7]): > 512 µg/mL
MIC (Staphylococcus aureus [8]): 256 µg/mL (≈ 664 µM)
MIC (Pseudomonas aeruginosa [9]): 128 µg/mL (≈ 332 µM)
MIC (Salmonella typhi [10]): > 512 µg/mL
MBC (Escherichia coli [11]): > 512 µg/mL
MBC (Enterococcus faecalis [12]): 512 µg/mL (≈ 1330 µM)
MBC (Staphylococcus aureus [13]): 256 µg/mL (≈ 664 µM)
MBC (Pseudomonas aeruginosa [14]): 128 µg/mL (≈ 332 µM)
Ratio (Enterococcus faecalis [15]): 1
Ratio (Staphylococcus aureus [16]): 1
Ratio (Pseudomonas aeruginosa [17]): 1
diameter of the inhibition zone (DIZ) (Escherichia coli [18]): 11 mm
diameter of the inhibition zone (DIZ) (Enterococcus faecalis [19]): 12 mm
diameter of the inhibition zone (DIZ) (Staphylococcus aureus [20]): 13 mm
diameter of the inhibition zone (DIZ) (Pseudomonas aeruginosa [21]): 13 mm
diameter of the inhibition zone (DIZ) (Salmonella typhi [22]): 13 mm
diameter of the inhibition zone (DIZ) (Escherichia coli [23]): 12 mm
diameter of the inhibition zone (DIZ) (Enterococcus faecalis [24]): 17 mm
diameter of the inhibition zone (DIZ) (Bacillus subtilis [25]): 6 mm
diameter of the inhibition zone (DIZ) (Staphylococcus aureus [26]): 15 mm
diameter of the inhibition zone (DIZ) (Pseudomonas aeruginosa [27]): 18 mm
diameter of the inhibition zone (DIZ) (Salmonella typhi [28]): 10 mm
diameter of the inhibition zone (DIZ) (Escherichia coli [29]): 11 mm
diameter of the inhibition zone (DIZ) (Enterococcus faecalis [30]): 19 mm
diameter of the inhibition zone (DIZ) (Bacillus subtilis [31]): 8 mm
diameter of the inhibition zone (DIZ) (Staphylococcus aureus [32]): 16 mm
diameter of the inhibition zone (DIZ) (Pseudomonas aeruginosa [33]): 20 mm
diameter of the inhibition zone (DIZ) (Salmonella typhi [34]): 11 mm
MIC (Escherichia coli [35]): 32 µg/mL
MIC (Enterococcus faecalis [36]): 64 µg/mL
MIC (Staphylococcus aureus [37]): 64 µg/mL
MIC (Pseudomonas aeruginosa [38]): 8 µg/mL
fractional inhibitory concentration index (FICI) (Escherichia coli [39]): 0.249
fractional inhibitory concentration index (FICI) (Enterococcus faecalis [40]): 1.125
fractional inhibitory concentration index (FICI) (Staphylococcus aureus [41]): 1.25
fractional inhibitory concentration index (FICI) (Pseudomonas aeruginosa [42]): 1.062
inhibition (INH) (Pseudomonas aeruginosa [43]): >80%
inhibition (INH) (Enterococcus faecalis [44]): >80%
inhibition (INH) (Bacillus subtilis [45]): >80%
inhibition (INH) (Staphylococcus aureus [46]): >80%
Activity (Staphylococcus aureus [47]): inactive
Activity (Escherichia coli [48]): Active
Activity (Staphylococcus aureus [49]): Active
Activity (Escherichia coli [50]): Active
Activity (Staphylococcus aureus [51]): inactive
